Results taken from patent US8309726B2, “Substituted piperazine compounds of formula 8” (Council of Scientific & Industrial Research, priority 2007, dated 2012).

Key:
CNS cancer cell lines = test: In vitro cytotoxicity, CNS panel; format: cell-based; conditions: Homo sapiens, average of six to nine different cancer cell lines, 48 h, SRB, read-out: Log GI50 (concentration in mol/L causing 50% growth inhibition) (converted)
Procedure: (§1) In vitro evaluation of cytotoxic activity: Compounds were evaluated for in vitro anticancer activity against sixty human tumour cells derived from nine cancer types (colon, prostate, oral, lung, cervix and breast cancer) as shown in (Table 1, 2 and 3) 8b, 8c, 8d, and 8e, were evaluated for in vitro anticancer activity against sixty human tumour cells derived from nine cancer types (leukemia, non-small-cell lung, colon, CNS, melanoma, ovarian, prostate, and breast cancer) as shown in (Table 2 and 3). For the compound, dose response curves for each cell line were measured at a minimum of five concentrations at 10 fold dilutions. A protocol of 48 h continuous drug exposure was used and a sulforhodamine B (SRB) protein assay was used to estimate cell viability or growth. The concentration causing 50% cell growth inhibition (GI50), total cell growth inhibition (TGI 0% growth) and 50% cell death (LC50, −50% growth) compared with the control was calculated. The mean graph midpoint values of log10 TGI and log10 LC50 as well as log10 GI50 for 8a, 8b, 8c, 8d, and 8e, are listed in (Table 2 and 3).
(§2) Each cancer type represents the average of six to nine different cancer cell lines. The compounds 8a, 8b, 8c, 8d, 8e and 8f were evaluated for in vitro anticancer activity against sixty human tumour cells derived from nine cancer types (leukemia, colon, prostate, renal melanoma CNS, lung, cervix and breast cancer) as shown in Table 3. Compounds 8b, 8c, 8d and 8e show promising cytotoxicity against some cancer cell lines (Table 2). Compounds 8b, 8c, 8d and 8e have been evaluated for their in vitro cytotoxicity in selected human cancer cell lines of colon (Colo205), lung (Hop-62), cervix (SiHa), prostate (DU145, PC3), oral (DWD, HT1080), and breast (MCF7, Zr-75-1) origin. A protocol of 48 h continuous drug exposure has been used and an […] has been used to estimate cell viability or growth. The results are expressed as percent of cell growth determined relative to that of untreated control cells. […] In the breast cancer panel, the growth of BT-549, MCF-7 cell lines are 10.3, and 17.6. In the prostate cancer panel, the growth of DU-145, PC-3 cell lines are 11.3, and 19.2. The GI50 values of compound In the CNS cancer panel, the growth of SF-539, SNB-75 cell lines are […]. […] In vitro cytotoxicity of compounds 8a, and 8b in selected cancer cell lines has been illustrated in Table 3. The average GI50 values for each cancer panel of compounds 8b, 8c, 8d and 8e have been illustrated in above Table 2 and 3

Breast cancer cell lines = test: In vitro cytotoxicity, breast panel; format: cell-based; conditions: Homo sapiens, average of six to nine different cancer cell lines, 48 h, SRB, read-out: Log GI50 (concentration in mol/L causing 50% growth inhibition) (converted)
Procedure: as §1, §2

[1] = tested on: Nonsmall-cell-lung cancer cell lines; test: In vitro cytotoxicity, non-small-cell lung panel; format: cell-based; conditions: Homo sapiens, average of six to nine different cancer cell lines, 48 h, SRB, read-out: Log GI50 (concentration in mol/L causing 50% growth inhibition) (converted)
Procedure: as §1, §2

human tumour cell lines = test: In vitro anticancer activity against sixty human tumour cell lines (NCI, SRB assay); format: cell-based; conditions: for Log10LC50 mean graph midpoint (MG_MID): 50% cell death; for Log10LC50 mean graph midpoint (MG_MID) / Log10GI50 mean graph midpoint (MG_MID) / Log10TGI50 mean graph midpoint (MG_MID): 48 h continuous drug exposure, SRB assay; for Log10GI50 mean graph midpoint (MG_MID): 50% cell growth inhibition; for antiproliferative activity: against most of the tested cell lines; for Log10TGI50 mean graph midpoint (MG_MID): total cell growth inhibition; for GI50: Homo sapiens, sixty cell lines in nine cell panels
Procedure: as §1, §2

[2] = tested on: Melanoma cancer cell lines; test: In vitro cytotoxicity, melanoma panel; format: cell-based; conditions: Homo sapiens, average of six to nine different cancer cell lines, 48 h, SRB, read-out: Log GI50 (concentration in mol/L causing 50% growth inhibition) (converted)
Procedure: as §1, §2

[3] = tested on: Prostate cancer cell lines; test: In vitro cytotoxicity, prostate panel; format: cell-based; conditions: Homo sapiens, average of six to nine different cancer cell lines, 48 h, SRB, read-out: Log GI50 (concentration in mol/L causing 50% growth inhibition) (converted)
Procedure: as §1, §2

[4] = tested on: Ovarian cancer cell lines; test: In vitro cytotoxicity, ovarian panel; format: cell-based; conditions: Homo sapiens, average of six to nine different cancer cell lines, 48 h, SRB, read-out: Log GI50 (concentration in mol/L causing 50% growth inhibition) (converted)
Procedure: as §1, §2

[5] = tested on: Leukemia cancer cell lines; test: In vitro cytotoxicity, leukemia panel; format: cell-based; conditions: Homo sapiens, average of six to nine different cancer cell lines, 48 h, SRB, read-out: Log GI50 (concentration in mol/L causing 50% growth inhibition) (converted)
Procedure: as §1, §2

calf thymus (CT) DNA = test: Thermal denaturation studies with duplex-form calf thymus DNA; format: binding; conditions: for ΔTm (° C.) after incubation at 37° C. for 0 h / ΔTm (° C.) after incubation at 37° C. for 18 h / ΔTm (° C.) after incubation at 37° C. for 36 h: [ANCD]/[DNA] molar ratio 1:5, CT-DNA 100 μM, ligand 20 μM, sodium phosphate buffer pH 7.00; for ΔTm (° C.) after incubation at 37° C. for 0 h: 0 h at 37° C.; for ΔTm (° C.) after incubation at 37° C. for 18 h: 18 h at 37° C.; for ΔTm (° C.) after incubation at 37° C. for 36 h: 36 h at 37° C.; for Course of ΔTm over incubation at 0 hr, 18 hr and 36 hr: incubation at 37° C., [ANCD]/[DNA] 1:5
Procedure: Compounds were subjected to thermal denaturation studies with duplex-form calf thymus DNA (CT-DNA) using an adaptation of a reported procedure. Working solutions in aqueous buffer (10 mM NaH2PO4/Na2HPO4, 1 mM Na2EDTA, pH 7.00+/−0.01) containing CT-DNA (100 μM in phosphate) and the PBD (20 μM) were prepared by addition of concentrated ANCD solutions in DMSO to obtain a fixed [ANCD]/[DNA] molar ratio of 1:5. The DNA-ANCD solutions were incubated at 37° C. for 0, 18, and 36 h prior to analysis. Samples were monitored at 260 nm using a Beckman DU-7400 spectrophotometer fitted with high performance temperature controller, and heating was applied at 1° C. min^−1 in the 40-90° C. range. DNA helix coil transition temperatures (Tm) were obtained from the maxima in the (dA260)/dT derivative plots. Results are given as the mean+/−standard deviation from three determinations and are corrected for the effects of DMSO co-solvent using a linear correction term. Drug-induced alterations in DNA melting behaviour are given by: ΔTm=Tm (DNA+ANCD)−Tm (DNA alone), where the Tm value for the ANCD-free CT-DNA is 69.0+/−0.01.

Colon cancer cell lines = test: In vitro cytotoxicity, colon panel; format: cell-based; conditions: Homo sapiens, average of six to nine different cancer cell lines, 48 h, SRB, read-out: Log GI50 (concentration in mol/L causing 50% growth inhibition) (converted)
Procedure: as §1, §2

Renal cancer cell lines = test: In vitro cytotoxicity, renal panel; format: cell-based; conditions: Homo sapiens, average of six to nine different cancer cell lines, 48 h, SRB, read-out: Log GI50 (concentration in mol/L causing 50% growth inhibition) (converted)
Procedure: as §1, §2

[6] = tested on: MCF-7 cell line (breast cancer); test: In vitro cytotoxicity, MCF-7; format: cell-based; conditions: Homo sapiens, MCF7; MCF-7, breast cancer cell panel; read-out: GI50
Procedure: (§3) In vitro evaluation of cytotoxic activity: Compounds were evaluated for in vitro anticancer activity against sixty human tumour cells derived from nine cancer types (colon, prostate, oral, lung, cervix and breast cancer) as shown in (Table 1, 2 and 3) 8b, 8c, 8d, and 8e, were evaluated for in vitro anticancer activity against sixty human tumour cells derived from nine cancer types (leukemia, non-small-cell lung, colon, CNS, melanoma, ovarian, prostate, and breast cancer) as shown in (Table 2 and 3). For the compound, dose response curves for each cell line were measured at a minimum of five concentrations at 10 fold dilutions. […]
(§4) Each cancer type represents the average of six to nine different cancer cell lines. The compounds 8a, 8b, 8c, 8d, 8e and 8f were evaluated for in vitro anticancer activity against sixty human tumour cells derived from nine cancer types (leukemia, colon, prostate, renal melanoma CNS, lung, cervix and breast cancer) as shown in Table 3. […] Compounds 8b, 8c, 8d and 8e have been evaluated for their in vitro cytotoxicity in selected human cancer cell lines of colon (Colo205), lung (Hop-62), cervix (SiHa), prostate (DU145, PC3), oral (DWD, HT1080), and breast (MCF7, Zr-75-1) origin. […] The results are expressed as percent of cell growth determined relative to that of untreated control cells. […]

[7] = tested on: KM12 cell line (colon cancer); test: In vitro cytotoxicity, KM12; format: cell-based; conditions: Homo sapiens
Procedure: as §3, §4

[8] = tested on: CNS SF-295, SF-539, SNB-19 and SNB-75 cell lines; test: In vitro cytotoxicity, CNS cell lines SF-295, SF-539, SNB-19, SNB-75; format: cell-based; conditions: Homo sapiens; range over CNS SF-295, SF-539, SNB-19 and SNB-75
Procedure: as §3, §4

[9] = tested on: T47D cell line (breast cancer); test: In vitro cytotoxicity, T47D; format: cell-based; conditions: Homo sapiens, breast cancer cell panel
Procedure: as §3, §4

[10] = tested on: HCT-116 cell line (colon cancer); test: In vitro cytotoxicity, HCT-116; format: cell-based; conditions: Homo sapiens; colon cancer HCT-116
Procedure: as §3, §4

[11] = tested on: COLO 205 cell line (colon cancer); test: In vitro cytotoxicity, COLO 205; format: cell-based; conditions: Homo sapiens; colon cancer COLO 205
Procedure: as §3, §4

[12] = tested on: renal and prostate cancer panels; test: In vitro cytotoxicity, renal and prostate cancer panels; format: cell-based; conditions: Homo sapiens; range over renal and prostate cancer panels
Procedure: as §3, §4

SMILES	GI50 (CNS cancer cell lines) [µM]	GI50 (Breast cancer cell lines) [µM]	GI50 [1] [µM]	Log10LC50 mean graph midpoint (MG_MID) (human tumour cell lines)	Log10GI50 mean graph midpoint (MG_MID) (human tumour cell lines)	antiproliferative activity (human tumour cell lines)	Log10TGI50 mean graph midpoint (MG_MID) (human tumour cell lines)	GI50 [2] [µM]	GI50 [3] [µM]	GI50 [4] [µM]	GI50 [5] [µM]	ΔTm (° C.) after incubation at 37° C. for 0 h (calf thymus (CT) DNA) [°C]	ΔTm (° C.) after incubation at 37° C. for 18 h (calf thymus (CT) DNA) [°C]	ΔTm (° C.) after incubation at 37° C. for 36 h (calf thymus (CT) DNA) [°C]	Course of ΔTm over incubation at 0 hr, 18 hr and 36 hr (calf thymus (CT) DNA)	GI50 (Colon cancer cell lines) [µM]	GI50 (Renal cancer cell lines) [µM]	GI50 (human tumour cell lines) [µM]	other results
COc1cc(C(=O)N2CCN(c3ncccn3)CC2)c(N)cc1OCc1ccccc1 [Compound 8c, [2-amino-4-(benzyloxy)-5-methoxyphenyl][4-(2-pyrimidinyl)piperazino]methanone]	5.89	6.76	7.24	−4.47	−5.47	nanomolar to low micromolar concentrations	−5.47	1.78	16.6	5.75	5.5	1.4	1.6	2.3	gradually increased	3.39	5.62	–	–
COc1cc(C(=O)N2CCN(c3ncnc4ccccc34)CC2)c(N)cc1OCc1ccccc1 [Compound 8d, [2-amino-4-(benzyloxy)-5-methoxyphenyl][4-(4-quinazolinyl)piperazino]methanone]	1.78	7.08	1.35	−4.62	−5.62	nanomolar to low micromolar concentrations	−5.62	7.24	7.24	11.7	4.07	1.5	1.9	2.7	gradually increased	5.13	5.5	< 20	GI50 [6]: 12.6 µM; GI50 [7]: 14.6 µM; GI50 [8]: 11.8 to 24.2 µM; GI50 [9]: 13.2 µM; GI50 [10]: 16.3 µM; GI50 [11]: 11.2 µM; GI50 [12]: 1.16 to 32.4 µM
COc1cc(C(=O)N2CCN(c3ccccc3OC)CC2)c(N)cc1OCc1ccccc1 [Compound 8a, [2-amino-4-(benzyloxy)-5-methoxyphenyl][4-(2-methoxyphenyl)piperazino]methanone]	5.89	3.39	3.63	−4.19	−5.47	nanomolar to low micromolar concentrations	−5.24	4.47	6.61	5.75	5.5	1.2	1.7	2.2	gradually increased	8.51	5.62	< 20	–
COc1cc(C(=O)N2CCN(c3ccccc3OC)CC2)c(NC(=O)c2cnccn2)cc1OCc1ccccc1 [Compound 8f, (4-(Benzyloxy)-5-methoxy-2-(pyrazine-2-carbamido)phenyl)(4-(2-methoxyphenyl)piperazin-1-yl)methanone]	–	–	–	–	–	–	–	–	–	–	–	1.3	2.1	3.0	gradually increased	–	–	–	–
